This is an account of results in patent US20080279781A1, “Glycosylated Carboranylporphyrins and Uses Thereof” (Brookhaven Science Associates, LLC, priority 2007, published 2008).

For one data set, the system named is EMT-6 mammary carcinomas. In words: Biodistribution of porphyrins in mice bearing EMT-6 carcinomas (boron by DCP-AES). The settings on record: n = 5; for Average boron concentration, EMT-6 Tumor: wet tissue. The format is in vivo, BALB/c mice. How it is done: (§1) Porphyrin compounds (VII, XII, XXIII) were emulsified in 3% Cremophor EL and 6% propylene glycol in saline.
(§2) To prepare a solution of ˜3.5 mg/mL porphyrin in 3% Cremophor EL (CRM) and 6% propylene glycol (PRG), the porphyrin was dissolved in tetrahydrofuran (THF) (1.5% of the total volume) and then heated to 40° C. for 15 min. CRM (3% of total volume) was then added and the mixture was heated to 60° C. for 2 hours, which removed most of the THF. After cooling to room temperature, PRG (6% of total volume) was added, followed by slow dropwise addition of saline (89.5% of total volume) with rapid stirring. The solution was degassed by stirring under vacuum (˜30 mm Hg) for 30-60 min and then filtered (Millipore, 8 μm).
(§3) BALB/c mice bearing subcutaneously implanted EMT-6 mammary carcinomas implanted on the dorsal thorax were given a total dose of 200-230 milligrams porphyrin compound (VII or XII) per kilogram body weight (32-37 mg B/kg). Mice were given six intraperitoneal injections over a 2-day period with 3 injections per day at 4-hour intervals. At one and two days after the last injection, mice were euthanized, and tumor, blood, brain, and liver were removed for boron analyses by direct current-plasma-atomic-emission spectrometry (DCP-AES). The blood was first analyzed for hematologic parameters that indicate toxicity before it was analyzed for boron.

The nature of data set [1]: Weight changes and hematologic parameters in mice bearing EMT-6 carcinomas. Type of data set: in vivo, BALB/c mice. The settings on record: median (range), 5 mice. Here is the method:
as §3

Data set [2] is described as follows: Weight changes and hematologic parameters in mice bearing SCCVII carcinomas. Type of data set: in vivo, C3H mice. Particulars: for % Weight change / Granulocytes / Lymphocytes / Platelets: median (range). How it is done:
(§4) C3H mice bearing subcutaneously implanted SCCVII squamous cell carcinomas implanted on the dorsal thorax were given a total dose of 450 milligrams porphyrin compound VII per kilogram body weight (70 mg B/kg) via 6 i.p. injections given over a period of 2 days (3/day over 8 hours). Mice were given porphyrin XXIII at a total dose of 160 mg/kg (36 mg/kg B) via 3 i.p. injections given over a period of 8 hours. At one and two days after the last injection, mice were euthanized, and tumor, blood, brain, and liver were removed for boron analyses. The blood was first analyzed for hematologic parameters that indicate toxicity before it was analyzed for boron.

The test system of data set [3] is SCCVII squamous cell carcinomas. Briefly: Biodistribution of porphyrins in mice bearing SCCVII squamous cell carcinomas. The format is in vivo, C3H mice. Particulars: for Average boron concentration, SCCVII Tumor: wet tissue. Here is the method:
as §1, §2, §4

Another data set has as its system tumors. The settings on record: in vivo; cited from earlier work.
The mark [4] stands for this setting: 230 mg/kg (37 mg B/kg) in 6 i.p. injections over 2 days, 1 d after last injection.
The mark [5] stands for this setting: 230 mg/kg (37 mg B/kg) in 6 i.p. injections over 2 days, 2 d after last injection.
Setting [6] is: 230 mg/kg i.p., 1 d after last injection.
Setting [7] is: 230 mg/kg i.p., 2 d after last injection.
[8] abbreviates: 450 mg/kg (70 mg B/kg) i.p., 1 d after last injection, 5 mice.
The mark [9] stands for this setting: 200 mg/kg (32 mg B/kg) in 6 i.p. injections over 2 days, 1 d after last injection.
Where [10] appears, read: 200 mg/kg (32 mg B/kg) in 6 i.p. injections over 2 days, 2 d after last injection.
Setting [11] is: 200 mg/kg i.p., 1 d after last injection.
The mark [12] stands for this setting: 200 mg/kg i.p., 2 d after last injection.
Setting [13] is: 450 mg/kg (70 mg B/kg) in 6 i.p. injections over 2 days, 1 d after last injection, 5 mice.
Where [14] appears, read: 180 mg/kg (39 mg B/kg) per table title, 160 mg/kg in text, i.p., 1 d after last injection, 4 mice.
Setting [15] is: 180 mg/kg (39 mg B/kg) per table title, 160 mg/kg in text, i.p., 2 d after last injection, 4 mice.
Where [16] appears, read: 160 mg/kg (36 mg B/kg in title, 160/39 in table) in 3 i.p. injections over 8 hours, 1 d after last injection, 4 mice.
The mark [17] stands for this setting: 160 mg/kg (36 mg B/kg in title, 160/39 in table) in 3 i.p. injections over 8 hours, 2 d after last injection, 4 mice.

On to “Copper (II) meso-5,15-bis[3-(o-carboranylmethoxy)phenyl]-10,20-bis[3-(β-D-galactose)phenyl]porphyrin [Porphyrin XII]”, for which, in the data set on EMT-6 mammary carcinomas (setting [4]), the “Average boron concentration, Blood” value is reported as 0.4 ± 0.1 μg B/g; the “Average boron concentration, Brain” value was 0.0 ± 0.1 μg B/g; the “Average boron concentration, Liver” value is given as 473 ± 102 μg B/g; the “Average boron concentration, EMT-6 Tumor” value is listed as 16.7 ± 8.3 μg B/g. In the data set on EMT-6 mammary carcinomas (setting [5]), the “Average boron concentration, Blood” value is recorded as 0.2 ± 0.1 μg B/g; the “Average boron concentration, Brain” value was found to be 0.0 ± 0.1 μg B/g; the “Average boron concentration, Liver” value is reported as 354 ± 352 μg B/g; the “Average boron concentration, EMT-6 Tumor” value is reported as 12.6 ± 5.2 μg B/g. Also, in data set [1] (setting [6]), the “% Weight change” value is 1.2 (−3.5-4.8) %, the Granulocytes was 61 (38-71) % WBC, the Lymphocytes is reported as 36 (26-59) % WBC and the Platelets was 962 (944-1306) 10^3/mm^3. In addition, in data set [1] (setting [7]), the “% Weight change” value was 3.4 (−2.2-4.8) %, the Granulocytes is listed as 43 (34-76) % WBC, the Lymphocytes is recorded as 54 (22-63) % WBC and the Platelets is on record as 797 (736-877) 10^3/mm^3.

With “copper (II) meso-5,15-bis[3-(o-carboranylmethoxy)phenyl]-10,20-bis[3-(β-D-glucosyl)phenyl]porphyrin [Porphyrin VII]”, in data set [2] (setting [8]), the “% Weight change” value is reported as −1.2 (−2.6-1.9) %, the Granulocytes is recorded as 46 (41-50) % WBC, the Lymphocytes was 50 (46-56) % WBC and the Platelets is listed as 739 (628-751) 10^3/mm^3. Besides, the thrombocytopenia result in data set [2] (very high dose of 450 mg/kg) was “no thrombocytopenia”. Moreover, in the data set on EMT-6 mammary carcinomas (setting [9]), the “Average boron concentration, Blood” value is on record as 0.4 ± 0.1 μg B/g; the “Average boron concentration, Brain” value is 0.0 ± 0.0 μg B/g; the “Average boron concentration, Liver” value was determined as 457 ± 74 μg B/g; the “Average boron concentration, EMT-6 Tumor” value is on record as 20.2 ± 6.3 μg B/g. Also, in the data set on EMT-6 mammary carcinomas (setting [10]), the “Average boron concentration, Blood” value was 0.2 ± 0.0 μg B/g; the “Average boron concentration, Brain” value was determined as 0.0 ± 0.0 μg B/g; the “Average boron concentration, Liver” value turned out to be 492 ± 83 μg B/g; the “Average boron concentration, EMT-6 Tumor” value amounted to 19.0 ± 5.4 μg B/g. Further, in data set [1] (setting [11]), the “% Weight change” value was −0.18 (−5.6-4.7) %, the Granulocytes was 49 (43-61) % WBC, the Lymphocytes is reported as 47 (37-54) % WBC and the Platelets is on record as 504 (111-783)* 10^3/mm^3. Besides, in data set [1] (setting [12]), the “% Weight change” value is 3.5 (−1.5-3.9) %, the Granulocytes is given as 45 (40-54) % WBC, the Lymphocytes was 52 (44-56) % WBC and the Platelets is listed as 935 (840-1039) 10^3/mm^3. For the same molecule, in data set [3] (setting [13]), the “Average boron concentration, Blood” value was 1.0 ± 0.1 µg/g; the “Average boron concentration, Brain” value worked out at 0.3 ± 0.1 µg/g; the “Average boron concentration, Liver” value was found to be 787 ± 70 µg/g; the “Average boron concentration, SCCVII Tumor” value came out at 29.1 ± 7.9 µg/g.

In the case of `N[C@@H](Cc1ccc(B(O)O)cc1)C(=O)O` [BPA, p-boronophenylalanine], the chemical toxicity entry in the data set with tumors is recorded as “low chemical toxicity”.

“copper (II) meso-5,15-bis[m-(3,5-di-o-carboranylmethoxybenzyloxy)phenyl]-10,20-bis[3-(β-D-glucosyl)phenyl]porphyrin [Porphyrin XXIII]”: in data set [2] (setting [14]), the “% Weight change” value is recorded as 0.5 (−1.9-3.2) %, the Granulocytes is 43 (32-46) % WBC, the Lymphocytes is listed as 53 (48-64) % WBC and the Platelets was 775 (618-881) 10^3/mm^3. Besides, in data set [2] (setting [15]), the “% Weight change” value is reported as 3.2 (0.9-6.3) %, the Granulocytes is 39 (36-43) % WBC, the Lymphocytes is reported as 57 (51-59) % WBC and the Platelets is 655 (610-723) 10^3/mm^3. The “platelet count in comparison with the control mice” value in data set [2] (moderately high dose of 160 mg/kg) is given as “did not show any decrease in platelet count”. For the same molecule, in data set [3] (setting [16]), the “Average boron concentration, Blood” value was found to be 0.6 ± 0.1 µg/g; the “Average boron concentration, Brain” value was 0.1 ± 0.0 µg/g; the “Average boron concentration, Liver” value was 540 ± 32 µg/g; the “Average boron concentration, SCCVII Tumor” value was determined as 16.9 ± 2.6 µg/g. For the same molecule, in data set [3] (setting [17]), the “Average boron concentration, Blood” value was 0.3 ± 0 µg/g; the “Average boron concentration, Brain” value was found to be 0.0 ± 0.0 µg/g; the “Average boron concentration, Liver” value stood at 534 ± 59 µg/g; the “Average boron concentration, SCCVII Tumor” value is 14.5 ± 2.9 µg/g.
